The values that follow come from ChEMBL document CHEMBL1201862, “PubChem BioAssay data set” (2004).

For assay [1], the target named is Focal adhesion kinase 1 (Homo sapiens, UniProt Q05397). The assay is classed as functional.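 Note: measured as one member of a kinome panel.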
Assay [2] concerns the target Casein kinase I isoform alpha (Homo sapiens, UniProt P48729). It is filed as functional.
Assay [3] deals with Dual specificity protein kinase CLK4 (Homo sapiens, UniProt Q9HAZ1). It is filed as functional.
Assay [4] addresses Botulinum neurotoxin type A (Clostridium botulinum (strain Hall / ATCC 3502 / NCTC 13319 / Type A), UniProt P0DPI1). In words: High-throughput multiplex microsphere dose response for inhibitors of toxin protease, specifically Botulinum neurotoxin light chain A protease, compounds from Cherry Pick 02. The assay is classed as functional. To be noted: read-out: EC50_MICROM.
Assay [5] addresses Sphingosine 1-phosphate receptor 2 (Homo sapiens, UniProt O95136). In words: activation of human S1P2 receptor – cell-based, fluorescence, set 2, counter-screen for S1P4 agonist project, late-stage follow-up (AID 504873). It is filed as functional.
The target in assay [6] is Sphingosine 1-phosphate receptor 1 (Homo sapiens, UniProt P21453). In words: Late-stage fluorescence-based dose-response cell-based counterscreen assay to identify agonists of the Sphingosine 1-Phosphate Receptor 4 (S1P4): Sphingosine 1-Phosphate Receptor 1 (S1P1) agonist assay Set 2. The assay is classed as functional.
Assay [7] concerns the target Sphingosine 1-phosphate receptor 5 (Homo sapiens, UniProt Q9H228). In words: activation of human S1P5 receptor – cell-based, fluorescence, set 2, counter-screen for S1P4 agonist project, late-stage follow-up (AID 504867). The assay is classed as functional.
The target in assay [8] is Sphingosine 1-phosphate receptor 3 (Homo sapiens, UniProt Q99500). In words: Late-stage fluorescence-based dose-response cell-based counterscreen assay to identify agonists of the Sphingosine 1-Phosphate Receptor 4 (S1P4): Sphingosine 1-Phosphate Receptor 3 (S1P3) agonist assay Set 2. It is filed as functional.
A short description of assay [9]: OVCAR-3 cell viability loss – plate reader, dry powder samples, PAX8 inhibitor project, dose response (AID 743044). The assay is classed as functional, cell-based.
For assay [10], the system named is BJ. Description: cells. The assay is classed as functional, cell-based. To be noted: Homo sapiens.
The target in assay [11] is Type-1 angiotensin II receptor (Homo sapiens, UniProt P30556). Description: antagonism of angiotensin II type 1 receptor – cell-based, uHTS hits, selectivity assay for APJ receptor antagonist project, dose response (AID 463214).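 Note: antagonist potency against angiotensin II stimulated AT1 response.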 The assay is classed as functional.
Assay [12] addresses Nucleotide-binding oligomerization domain-containing protein 2 (Homo sapiens, UniProt Q9HC29). Description: inhibition of NOD2-driven NF-kB reporter – cell-based, luminescence, uHTS, HEK293 (AID 1566). It is filed as functional.
Assay [13] can be described thus: Luminescence-based dose response cell-based high throughput screening assay for cytotoxic compounds using the IEC-6 intestinal epithelial cell line. [Related pubchem assays: 1858 (Summary AID.), 1825 (Counterscreen.), 1907 (Confirmation screen.)]. The assay is classed as functional.
Assay [14] in a line: OV-90 cell viability loss – plate reader, dry powder, SA8, PAX8 inhibitor project, dose response (AID 743149). The assay is classed as functional, cell-based.
The subject of assay [15] is HEK293. Description: cells. The assay is classed as functional, cell-based. To be noted: Homo sapiens.
Assay [16] in a line: IGROV1 cell killing – plate reader, dry powder samples, PAX8 inhibitor project, dose response (AID 743043). It is filed as functional, cell-based. To be noted: IGROV-1.
The subject of assay [17] is Streptococcus sp. 'group A'. In words: Streptococcus pyogenes SK(-)GAS viability under kanamycin – luminescence, BacTiterGlo, confirmation, counter-screen for streptokinase expression inhibitor project, dose response (AID 1900). It is filed as functional, organism-based.
The nature of assay [18]: inhibitors acting on PAX2 in cells – cell-based, plate reader, dry powder samples, selectivity assay for PAX8 inhibitor project, dose response (AID 743048).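 Note: HEK293 cells carrying a WT1 promoter luciferase reporter driven by expressed Pax2; potency is for inhibition of Pax2 driven reporter signal.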 The assay is classed as functional.
Assay [19] has as its system BJ. In words: growth inhibition of engineered Ras-driven BJ cells – cell-based, alamar blue fluorescence, cherrypicked samples, dose response (AID 2631).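 Note: confirmatory dose-response assay in RAS-dependent BJ fibroblasts engineered with TERT, LT and ST, with cytotoxicity read by fluorescence.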 The assay is classed as functional. To be noted: Homo sapiens.
The subject of assay [20] is HEK293. Description: SAR Analysis of small molecule inhibitors of both B-cell and T-cell specific antigen receptor-induced NF-kB activation in a HEK-293T cell line using a luminescence assay. [Related pubchem assays (depositor defined):AID435003, AID435022, AID465, AID489019, AID489029]. It is filed as functional, cell-based. To be noted: Homo sapiens.
Assay [21] relates to Jurkat. In words: SAR Analysis of small molecule inhibitors of both B-cell and T-cell specific antigen receptor-induced NF-kB activation in a Jurkat cell line using a luminescence assay. [Related pubchem assays (depositor defined):AID435003, AID435022, AID465, AID489029]. The assay is classed as functional, cell-based. As to conditions: Homo sapiens.
Assay [22] in a line: PAX5 cellular inhibition readout – cell-based, plate reader, dry powder samples, selectivity assay for PAX8 inhibitor project, dose response (AID 743047).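 Note: HEK293 cells carrying a Pax5 driven CD19 promoter luciferase reporter; potency of inhibitors that lower reporter luminescence.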 The assay is classed as functional.
Assay [23] deals with HEK293. In words: NOD2 signaling inhibitors in MDP-stimulated cells, cell-based, uHTS, luminescence (AID 2001). The assay is classed as functional. As to conditions: Homo sapiens.
Assay [24] has as its target T1, Streptokinase A (Streptococcus pyogenes serotype M1, UniProt P10520).
T1 sequence (P10520 whole entry): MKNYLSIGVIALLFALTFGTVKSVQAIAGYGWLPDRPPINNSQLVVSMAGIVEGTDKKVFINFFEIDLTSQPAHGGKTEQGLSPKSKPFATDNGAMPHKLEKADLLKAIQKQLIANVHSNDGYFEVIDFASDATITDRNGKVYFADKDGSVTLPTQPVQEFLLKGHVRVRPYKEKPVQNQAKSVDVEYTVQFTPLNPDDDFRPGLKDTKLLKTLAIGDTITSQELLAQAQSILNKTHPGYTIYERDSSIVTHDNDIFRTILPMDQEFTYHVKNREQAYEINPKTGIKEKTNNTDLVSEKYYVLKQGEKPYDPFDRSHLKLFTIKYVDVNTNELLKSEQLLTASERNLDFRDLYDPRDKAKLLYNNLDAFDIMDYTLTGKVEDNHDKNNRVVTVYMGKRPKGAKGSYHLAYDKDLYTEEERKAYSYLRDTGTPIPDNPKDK
In words: viability-normalized secreted streptokinase activity reduction – plasminogen activation absorbance, OD405, dose response (AID 1914).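 Note: secreted streptokinase activity via plasminogen activation per viability signal from cell pellet.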 It is filed as functional, Streptococcus pyogenes M1 GAS.

Assay [25] is described as follows: OVCAR4 cell viability loss – plate reader, dry powder, SA11, cytotoxicity control for PAX8 inhibitor project, dose response (AID 743150). It is filed as functional, cell-based. As to conditions: OVCAR-4.
Assay [26] has as its system HEK293. Description: HEK293T cell viability loss, resazurin readout – resazurin fluorescence, cytotoxicity control for NF-kB activator project, SAR follow-up (AID 493251). The assay is classed as functional, cell-based. As to conditions: Homo sapiens.
Assay [27] is described as follows: COV434 cell viability loss – plate reader, dry powder, SA7, cytotoxicity control for PAX8 inhibitor project, dose response (AID 743145). The assay is classed as functional, cell-based.
Assay [28] addresses Glucose-6-phosphate 1-dehydrogenase (Homo sapiens, UniProt P11413). Description: inhibition of Homo sapiens G6PD, dose series – biochemical, fluorescence, selectivity assay for P. falciparum G6PD inhibitor project, dose response (AID 504792). The assay is classed as functional.
Assay [29] is described as follows: DRD fibroblast viability loss – cell-based, non-viral oncogenic, luminescence, dose response (AID 1934). The assay is classed as functional. As to conditions: Homo sapiens.
Assay [30] has as its target Beta-galactosidase (Escherichia coli, UniProt Q8VNN2). In words: PubChem AID 485352. It is filed as functional.
Assay [31] concerns Vero. In words: mammalian cell viability reduction – secondary assay, cytotoxicity control for West Nile virus antiviral project, dose response (AID 1650). To be noted: Chlorocebus sabaeus. It is filed as functional.
Assay [32] has as its target Paired box protein Pax-8 (Homo sapiens, UniProt Q06710). In words: PAX8 transcriptional activity inhibition in RMG-I – RMG-I cells, luciferase, cherry-pick, dose response (AID 687027).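 Note: luciferase reporter driven by Pax8 target thyroperoxidase promoter measured by SteadyGlo luminescence.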 It is filed as functional, cell-based.
The test system of assay [33] is Streptococcus. Description: GAS UMAA2166 growth inhibition – luminescence, BacTiterGlo, counter-screen for streptokinase expression inhibitor project, dose response (AID 1915).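 Note: potency for reduction of bacterial viability or growth.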 The assay is classed as functional, organism-based.
Assay [34] concerns HEK293. Description: cells. To be noted: Homo sapiens. It is filed as functional, cell-based. The source holds these as a separate data set.
Assay [35] can be described thus: PAX8-dependent cell viability loss – plate reader, dry powder, dose response (AID 743049). It is filed as functional, cell-based.
Assay [36] deals with HEK293. Description: cells. It is filed as functional, cell-based. To be noted: Homo sapiens. The source holds these as a separate data set.
Assay [37] has as its system BJ. In words: BJ-TERT fibroblast viability loss – cell-based, RAS-independent, luminescence, dose response (AID 1933). It is filed as functional. To be noted: Homo sapiens.
For assay [38], the system named is HEK293. Description: inhibition of NOD1-driven NF-kB reporter – cell-based, luminescence, uHTS, primary screen (AID 1578). It is filed as functional. To be noted: Homo sapiens.
Assay [39] concerns BJ. Description: BJ-TERT-LT-ST fibroblast viability loss – cell-based, RAS-independent, luminescence, dose response (AID 1935).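 Note: BJ fibroblasts immortalized with TERT plus LT and ST oncogenes.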 The assay is classed as functional. To be noted: Homo sapiens.
Assay [40] has as its target Apoptotic protease-activating factor 1 (Homo sapiens, UniProt O14727). In words: SAR analysis of small molecule inhibitors of Apaf-1 in a Fluorescent assay. The assay is classed as functional. As to conditions: read-out: IC50_Mean.

Calls of active or inactive are those of the source.

Paired box protein Pax-8, sequence (Q06710 whole entry): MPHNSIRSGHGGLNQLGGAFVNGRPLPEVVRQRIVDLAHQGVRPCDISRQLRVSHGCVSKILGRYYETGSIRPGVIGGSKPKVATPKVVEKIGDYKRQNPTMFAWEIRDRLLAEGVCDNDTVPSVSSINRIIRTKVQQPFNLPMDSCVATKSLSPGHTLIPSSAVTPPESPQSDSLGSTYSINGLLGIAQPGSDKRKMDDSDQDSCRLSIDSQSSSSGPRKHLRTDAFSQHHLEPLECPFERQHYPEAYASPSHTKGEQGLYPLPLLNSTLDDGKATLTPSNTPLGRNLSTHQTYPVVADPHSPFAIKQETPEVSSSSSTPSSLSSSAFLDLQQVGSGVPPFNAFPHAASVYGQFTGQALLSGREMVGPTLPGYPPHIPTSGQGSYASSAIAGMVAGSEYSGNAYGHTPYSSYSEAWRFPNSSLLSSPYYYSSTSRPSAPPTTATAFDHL
Glucose-6-phosphate 1-dehydrogenase, sequence (P11413 whole entry): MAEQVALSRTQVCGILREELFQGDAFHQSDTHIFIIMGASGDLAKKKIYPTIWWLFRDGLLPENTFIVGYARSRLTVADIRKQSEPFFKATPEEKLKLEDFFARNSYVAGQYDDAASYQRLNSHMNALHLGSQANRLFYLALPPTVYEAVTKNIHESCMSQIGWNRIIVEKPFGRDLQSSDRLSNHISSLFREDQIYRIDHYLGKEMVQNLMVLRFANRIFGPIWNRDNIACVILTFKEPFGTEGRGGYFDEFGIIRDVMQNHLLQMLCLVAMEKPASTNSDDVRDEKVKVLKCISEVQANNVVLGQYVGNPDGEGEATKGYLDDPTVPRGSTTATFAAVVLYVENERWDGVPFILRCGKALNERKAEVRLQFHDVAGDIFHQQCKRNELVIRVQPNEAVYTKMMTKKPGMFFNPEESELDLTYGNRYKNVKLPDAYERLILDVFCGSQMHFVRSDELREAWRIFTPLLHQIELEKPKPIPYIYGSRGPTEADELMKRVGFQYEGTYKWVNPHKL
Type-1 angiotensin II receptor, sequence (P30556 whole entry, the tested form may be a part): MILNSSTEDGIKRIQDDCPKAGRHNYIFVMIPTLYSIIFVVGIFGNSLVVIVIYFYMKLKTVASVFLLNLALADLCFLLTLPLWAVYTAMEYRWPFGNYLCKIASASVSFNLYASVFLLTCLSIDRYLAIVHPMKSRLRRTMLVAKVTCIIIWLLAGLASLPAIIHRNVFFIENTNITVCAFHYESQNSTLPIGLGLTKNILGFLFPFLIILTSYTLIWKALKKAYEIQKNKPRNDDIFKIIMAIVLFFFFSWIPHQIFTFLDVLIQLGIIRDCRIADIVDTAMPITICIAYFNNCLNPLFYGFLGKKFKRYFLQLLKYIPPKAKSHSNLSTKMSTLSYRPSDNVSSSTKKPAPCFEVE
Casein kinase I isoform alpha, sequence (P48729 whole entry, canonical isoform): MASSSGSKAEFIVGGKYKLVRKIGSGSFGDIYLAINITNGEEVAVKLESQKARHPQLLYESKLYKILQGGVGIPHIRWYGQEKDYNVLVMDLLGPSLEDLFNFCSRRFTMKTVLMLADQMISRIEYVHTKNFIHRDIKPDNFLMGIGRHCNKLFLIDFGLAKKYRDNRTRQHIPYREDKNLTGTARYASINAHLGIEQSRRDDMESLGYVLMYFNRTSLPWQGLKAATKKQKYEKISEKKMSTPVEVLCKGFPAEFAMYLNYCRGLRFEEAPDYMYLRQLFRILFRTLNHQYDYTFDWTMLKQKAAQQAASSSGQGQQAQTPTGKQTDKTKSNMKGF
Sphingosine 1-phosphate receptor 1, sequence (P21453 whole entry): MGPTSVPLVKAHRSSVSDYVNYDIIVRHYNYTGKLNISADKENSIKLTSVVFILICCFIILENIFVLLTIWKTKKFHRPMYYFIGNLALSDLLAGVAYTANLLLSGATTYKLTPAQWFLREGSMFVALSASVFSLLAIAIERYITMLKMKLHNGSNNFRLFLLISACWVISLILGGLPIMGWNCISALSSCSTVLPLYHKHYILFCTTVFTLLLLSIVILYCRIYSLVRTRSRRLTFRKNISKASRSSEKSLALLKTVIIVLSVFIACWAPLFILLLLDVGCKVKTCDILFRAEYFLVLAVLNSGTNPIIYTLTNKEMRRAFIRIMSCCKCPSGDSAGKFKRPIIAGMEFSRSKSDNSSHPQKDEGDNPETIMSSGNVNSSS
Focal adhesion kinase 1, sequence (Q05397 whole entry, canonical isoform): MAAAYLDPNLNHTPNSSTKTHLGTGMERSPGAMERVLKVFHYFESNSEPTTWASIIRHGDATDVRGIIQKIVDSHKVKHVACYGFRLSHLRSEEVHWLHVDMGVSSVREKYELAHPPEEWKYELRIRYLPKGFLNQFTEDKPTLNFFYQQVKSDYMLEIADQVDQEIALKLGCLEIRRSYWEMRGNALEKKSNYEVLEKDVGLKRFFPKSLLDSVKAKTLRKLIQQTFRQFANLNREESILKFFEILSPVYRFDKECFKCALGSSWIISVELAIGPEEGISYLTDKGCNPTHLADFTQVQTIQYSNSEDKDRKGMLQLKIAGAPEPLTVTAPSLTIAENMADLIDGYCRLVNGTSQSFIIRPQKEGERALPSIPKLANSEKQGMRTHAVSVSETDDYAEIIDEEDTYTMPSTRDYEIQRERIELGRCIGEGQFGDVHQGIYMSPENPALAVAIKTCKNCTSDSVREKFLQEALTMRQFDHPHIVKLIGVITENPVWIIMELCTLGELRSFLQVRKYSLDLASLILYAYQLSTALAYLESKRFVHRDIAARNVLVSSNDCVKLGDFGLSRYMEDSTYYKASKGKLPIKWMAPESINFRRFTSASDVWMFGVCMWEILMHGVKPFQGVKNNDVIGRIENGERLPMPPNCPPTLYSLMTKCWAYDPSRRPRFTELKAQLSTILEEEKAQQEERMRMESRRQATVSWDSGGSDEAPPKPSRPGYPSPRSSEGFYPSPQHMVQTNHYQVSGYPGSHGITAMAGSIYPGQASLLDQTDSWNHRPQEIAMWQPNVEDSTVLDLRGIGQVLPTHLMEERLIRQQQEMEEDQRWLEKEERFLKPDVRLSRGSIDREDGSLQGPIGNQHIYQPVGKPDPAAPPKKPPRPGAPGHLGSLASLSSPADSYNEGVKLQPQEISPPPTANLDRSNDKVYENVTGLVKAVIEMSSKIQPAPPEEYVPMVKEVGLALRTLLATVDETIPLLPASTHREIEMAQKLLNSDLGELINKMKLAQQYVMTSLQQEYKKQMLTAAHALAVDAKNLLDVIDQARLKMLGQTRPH
Dual specificity protein kinase CLK4, sequence (Q9HAZ1 whole entry): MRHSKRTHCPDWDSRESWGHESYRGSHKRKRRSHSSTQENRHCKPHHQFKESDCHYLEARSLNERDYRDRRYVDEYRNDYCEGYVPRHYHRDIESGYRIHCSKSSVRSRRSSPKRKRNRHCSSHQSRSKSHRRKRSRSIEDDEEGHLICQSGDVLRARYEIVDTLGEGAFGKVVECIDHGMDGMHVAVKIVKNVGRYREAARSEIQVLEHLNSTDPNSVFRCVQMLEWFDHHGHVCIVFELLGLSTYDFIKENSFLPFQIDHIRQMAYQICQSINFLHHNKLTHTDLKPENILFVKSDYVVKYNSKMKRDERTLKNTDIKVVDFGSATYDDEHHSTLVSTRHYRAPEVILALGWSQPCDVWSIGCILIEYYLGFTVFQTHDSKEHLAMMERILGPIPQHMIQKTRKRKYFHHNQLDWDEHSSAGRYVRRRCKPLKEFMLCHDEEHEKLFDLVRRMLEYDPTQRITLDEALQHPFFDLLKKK
Sphingosine 1-phosphate receptor 5, sequence (Q9H228 whole entry): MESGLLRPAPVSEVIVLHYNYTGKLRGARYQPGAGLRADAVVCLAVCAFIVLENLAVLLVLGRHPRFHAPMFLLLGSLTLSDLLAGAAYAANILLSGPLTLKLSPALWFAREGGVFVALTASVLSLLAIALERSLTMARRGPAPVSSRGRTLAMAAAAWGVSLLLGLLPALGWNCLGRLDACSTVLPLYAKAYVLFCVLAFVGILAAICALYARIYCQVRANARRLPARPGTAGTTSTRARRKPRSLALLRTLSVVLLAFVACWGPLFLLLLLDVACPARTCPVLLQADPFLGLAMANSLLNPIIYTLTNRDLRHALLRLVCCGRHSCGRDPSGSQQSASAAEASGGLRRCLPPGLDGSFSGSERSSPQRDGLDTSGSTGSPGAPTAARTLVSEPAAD
Botulinum neurotoxin type A, sequence (P0DPI1 2-448 limits assumed): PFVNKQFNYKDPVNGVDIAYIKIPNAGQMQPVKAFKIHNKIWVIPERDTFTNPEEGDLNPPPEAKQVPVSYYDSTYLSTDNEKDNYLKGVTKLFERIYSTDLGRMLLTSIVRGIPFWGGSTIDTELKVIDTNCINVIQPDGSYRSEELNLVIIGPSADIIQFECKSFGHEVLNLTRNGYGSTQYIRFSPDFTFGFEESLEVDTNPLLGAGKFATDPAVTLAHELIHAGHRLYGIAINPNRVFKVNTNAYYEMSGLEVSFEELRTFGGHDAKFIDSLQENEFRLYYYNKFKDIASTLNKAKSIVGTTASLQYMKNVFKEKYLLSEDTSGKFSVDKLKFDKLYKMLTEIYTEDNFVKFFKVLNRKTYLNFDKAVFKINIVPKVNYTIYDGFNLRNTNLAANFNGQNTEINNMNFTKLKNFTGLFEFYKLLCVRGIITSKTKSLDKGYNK
Sphingosine 1-phosphate receptor 3, sequence (Q99500 whole entry): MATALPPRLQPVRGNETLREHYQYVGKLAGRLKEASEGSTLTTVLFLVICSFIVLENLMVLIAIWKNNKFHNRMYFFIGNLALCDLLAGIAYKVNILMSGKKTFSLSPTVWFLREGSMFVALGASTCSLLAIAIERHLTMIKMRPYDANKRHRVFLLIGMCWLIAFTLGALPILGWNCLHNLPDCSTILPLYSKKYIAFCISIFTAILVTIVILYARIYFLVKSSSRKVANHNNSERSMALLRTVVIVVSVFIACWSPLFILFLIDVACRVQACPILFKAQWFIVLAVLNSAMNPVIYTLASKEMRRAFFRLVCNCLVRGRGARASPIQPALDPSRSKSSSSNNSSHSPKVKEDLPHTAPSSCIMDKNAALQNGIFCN

Take `Cc1cc(C(C)Nc2ccccc2)c2nc(N3CCOCC3)cc(=O)n2c1` (stereo not given): the inhibitory constant (Ki) in assay [1] was 2.51 µM (active); in [2], 2 µM (active); in [3], 2.51 µM (active).

For the compound `Cc1onc(-c2ccccc2Cl)c1C(=O)NCc1ccc2c(c1)cc(C)n2C`, in [4], the EC50 was 4.2 µM (active).

For `CC/N=C1/S/C(=C/c2cc(C)n(Cc3ccccc3)c2C)C(=O)N1CC`, the EC50 was 3.28 µM (active) in [5], 185 nM (active) in [6], 63.1 nM (active) in [7] and 12.9 µM (inactive) in [8].

For `O=S(=O)(Nc1cccc2cccnc12)c1ccccc1`, the AC50 in assay [9] was 38.9 µM (active); in assay [14] it was 15.3 µM (active); in assay [16], 26.3 µM (active); in [18] it was 32.4 µM (active); in assay [22], 33.2 µM (active); in assay [25], 21.4 µM (active). For the same compound, the figures for the AC50 in [27], in assay [32] and in assay [35] were 19.3 µM (active), 6.46 µM (active) and 20.7 µM (active), respectively. For the same compound, the EC50 is 17.2 µM (active) in assay [10]; > 20 µM (inactive) in [12]; 3.27 µM (active) in [17]; 572 nM (active) in assay [19]; > 150 µM (not active) in assay [24]; 34 µM (active) in assay [29]. The EC50 in assay [30] was > 40 µM (inactive); in assay [33], 12.3 µM (active); in [37] it was 28.1 µM (active); in assay [38] it was > 20 µM (inactive); in assay [39] it was > 150 µM (not active). In addition, the IC50 in [11] is 2.75 µM (active); in [13], 2.08 µM (active); in assay [15], 2.74 µM (active); in [20] it was 44.8 µM (inactive); in [21], 890 nM (active); in [23], 1.83 µM (inactive). In addition, the IC50 is > 80 µM (inactive) in assay [26], 51.9 µM (inactive) in assay [28], 11.7 µM (active) in assay [34] and > 20 µM (inactive) in assay [36]. Besides, the CC50 in assay [31] was 7.94 µM (active).

In the case of `CCN(CC)CCOC(=O)c1ccc(N/C=C(\C#N)c2nc(-c3ccc(Cl)c(Cl)c3)cs2)cc1`, in [40], the IC50 was 6.88 µM (active).
